The test system of one series is rats. Nature of the series: Effects of RAP in vivo, intravenous administration to rats. Conditions: 20 μmole/kg. On the set-up: species or system rat. On the procedure: Animals. Brain tissue was obtained from young adult male Wistar rats (45-50 days old). In one series of experiments, rats that had previously been fed ad libidum were anesthetized with 4% halothane and a V-3 cannula was inserted in the femoral vein. The animals were immobilized by taping them to a lead brick. After they had recovered sufficiently, they were injected with the RAP solution. After initial observation for any side-reactions, the rats were untaped and their wounds were closed under anesthesia. The rats were then placed back in their cages for further observation.
The animals survived for 3 weeks before being killed.

The next series concerns the target T1, glutamate dehydrogenase (Rattus norvegicus, UniProt P10860).
T1 construct: Commercial and rat brain glutamate dehydrogenases; from tissue; host or cells: rat brain
Nature of the series: Rat brain glutamate dehydrogenase with RAP. It is filed as biochemical. Conditions: 20 μM RAP. On the procedure: (§1) Each of the enzymes was assayed by procedures in which change of absorbance at 340 nm due to NADH was followed essentially as described by Bergmeyer (1974, Methods of Enzymatic Analysis, 2nd Eng. Ed., Verlag Chemie Weinheim Academic Press, N.Y.) with the following exceptions. Phosphofructokinase was assayed according to the method of Lai et al (1984, J. Neurochem., 42:438-446). NAD^+ -linked isocitrate dehydrogenase was assayed as described by Lai and Clark (1976, Biochem. J., 154:423-432). Pyruvate and α-ketoglutarate dehydrogenase complexes were respectively assayed according to the methods of Lai and Sheu (1985, J. Neurochem., 45:1861-1868) and Lai and Cooper (1986) (J. Neurochem, 47:1376-1386).

Series [1] deals with T2, mitochondrial malate dehydrogenase (Rattus norvegicus, UniProt P04636).
T2 construct: Commercial and rat brain glutamate dehydrogenases and mitochondrial malate dehydrogenases were only slightly; from tissue; host or cells: rat brain
Nature of the series: Rat brain mitochondrial malate dehydrogenase with RAP. It counts as biochemical. Conditions: 20 μM RAP. On the procedure:
as §1

For another series, the target named is T3, hexokinase (Rattus norvegicus, UniProt P05708).
T3 construct: following enzymes in rat brain subcellular fractions: α-ketoglutarate, isocitrate and cytosolic malate dehydrogenases, and hexokinase; from tissue; host or cells: rat brain subcellular fractions
Put plainly: Rat brain hexokinase with RAP. It is filed as biochemical. Conditions: 20 μM RAP. On the procedure: as §1

The target in series [2] is T4, mitochondrial pig heart malate dehydrogenase (Sus scrofa, UniProt P00346).
T4 construct: purchased Boehringer Mannheim Corp. (Indianapolis); host or cells: pig heart
Put plainly: Commercial mitochondrial malate dehydrogenase with RAP. It counts as biochemical. To be noted: 20 μM RAP. The source says: (§2) Enzymes and enzyme assays. Rabbit muscle glyceraldehyde-3-phosphate dehydrogenase (80 U/mg: ammonium sulfate suspension), rabbit muscle glycerol-3-phosphate dehydrogenase (40 U/mg; ammonium sulfate suspension),beef liver glutamate dehydrogenase (120 U/mg: in 50% glycerol), mitochondrial pig heart malate dehydrogenase (1100 U/mg; in 50% glycerol) and yeast hexokinase (140 U/mg; ammonium sulfate suspension) were purchased from Boehringer Mannheim Corp. (Indianapolis). Beef heart lactate dehydrogenase (280 U/mg) was purchased from Worthington Biochemical Corporation (Freehold, N.J.). Porcine heart L-alanine aminotransferase (130 U/mg), rabbit muscle phosphofructokinase (140 U/mg; ammonium sulfate suspension), bovine heart α-ketoglutarate (8 U/mg) and pyruvate (5 U/mg) dehydrogenase complexes, sodium pyruvate, L-methionine-SR-sulfoximine, DL-vinylglycine, NAD^+, NADH and NAD^+ analogues (3-acetylpyridine, thionicotinamide, and 3-pyridinealdehyde adenine dinucleotides) were purchased from Sigma Chemical Company (St. Louis, Mo.).
(§3) Each of the enzymes was assayed by procedures in which change of absorbance at 340 nm due to NADH was followed essentially as described by Bergmeyer (1974, Methods of Enzymatic Analysis, 2nd Eng. Ed., Verlag Chemie Weinheim Academic Press, N.Y.) with the following exceptions. […]

The target of series [3] is T5, glyceraldehyde-3-phosphate dehydrogenase (Rattus norvegicus, UniProt P04797).
T5 construct: from tissue; host or cells: rat brain
Nature of the series: Rat brain glyceraldehyde-3-phosphate dehydrogenase with RAP. It is filed as biochemical. To be noted: 20 μM RAP. On the procedure:
as §1

The nature of series [4]: Stability of pyruvate adducts in solution and on storage. It is filed as physicochemical. Conditions: neutral ph solution; neutral pH values; read-out: t1/2 of reversion to free pyruvate. On the procedure:
The procedure used was a modification of that of Everse et al (1971, supra) for the synthesis of the NAD-pyruvate adduct Sodium pyruvate (15 mg) and NAD^+ (or NAD^+ analogue) (100 mg) were dissolved in deaerated water. The pH was brought to 11.0 with concentrated NaOH. After standing at room temperature for one hour, the solution was applied to the top of a column of Whatman DE-52 (2×3 cm), washed with deaerated distilled water. The column was eluted with 30 ml of 25 mM ammonium bicarbonate at 4° C. Unreacted pyruvate, NAD^+ and NAD^+ analogues were eluted in this fraction. The highly-colored (yellow-orange) adducts were eluted with 5-6 ml of 25 mM ammonium bicarbonate containing 4% NaCl. The fraction was split into approximately 1 ml portions, flushed with nitrogen, and stored at -70° C. […] Nevertheless, under the slightly alkaline conditions of storage and low temperature, these adducts remained stable for at least 3 months as judged by their continued potency toward inhibition of lactate dehydrogenase and maintenance of absorbance at 340 nm. […] The presence of a reactive carbonyl function was monitored as follows: 0.2-0.3 μ mole of the adduct was added to 50 μl of 0.1% 2,4-dinitrophenylhdrazine in 2 M HCl. […] The absorbance at 430 nm was compared to equivalent amounts of pyruvate and NAD^+ analogue taken through the same procedure. […]

For series [5], the target named is T6, bovine heart α-ketoglutarate dehydrogenase complex (Bos taurus, UniProt F1N206).
T6 construct: purchased Sigma Chemical Company (St. Louis, Mo.); host or cells: bovine heart
Nature of the series: Purified bovine heart α-ketoglutarate dehydrogenase complex with RAP. It is filed as biochemical. To be noted: 20 μM RAP.
Source text: as §2, §3

The next series addresses T7, pyruvate dehydrogenase (Rattus norvegicus, UniProt P26284+P49432+Q6P6R2).
T7 construct: from tissue; host or cells: rat brain
Put plainly: Rat brain pyruvate dehydrogenase with RAP. To be noted: 20 μM RAP. It is filed as biochemical. On the procedure:
as §1

Entries after “also recorded” stand apart in the source; their conditions may differ.

Data on one compound can be found in patent publication US4950602A, “Inhibition of lactate production by pyruvate adducts” (Cornell Research Foundation, Inc., priority 1987, dated 1990).

T2 sequence (P04636 25-338): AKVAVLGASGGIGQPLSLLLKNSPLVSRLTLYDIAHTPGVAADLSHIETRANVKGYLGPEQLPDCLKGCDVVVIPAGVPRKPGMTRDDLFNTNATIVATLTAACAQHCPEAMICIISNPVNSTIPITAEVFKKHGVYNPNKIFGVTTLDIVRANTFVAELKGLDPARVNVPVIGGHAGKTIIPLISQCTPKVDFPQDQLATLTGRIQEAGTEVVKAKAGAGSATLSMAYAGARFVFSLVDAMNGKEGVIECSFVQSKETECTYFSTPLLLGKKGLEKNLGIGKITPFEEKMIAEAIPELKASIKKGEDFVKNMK
T3 sequence (P05708 whole entry): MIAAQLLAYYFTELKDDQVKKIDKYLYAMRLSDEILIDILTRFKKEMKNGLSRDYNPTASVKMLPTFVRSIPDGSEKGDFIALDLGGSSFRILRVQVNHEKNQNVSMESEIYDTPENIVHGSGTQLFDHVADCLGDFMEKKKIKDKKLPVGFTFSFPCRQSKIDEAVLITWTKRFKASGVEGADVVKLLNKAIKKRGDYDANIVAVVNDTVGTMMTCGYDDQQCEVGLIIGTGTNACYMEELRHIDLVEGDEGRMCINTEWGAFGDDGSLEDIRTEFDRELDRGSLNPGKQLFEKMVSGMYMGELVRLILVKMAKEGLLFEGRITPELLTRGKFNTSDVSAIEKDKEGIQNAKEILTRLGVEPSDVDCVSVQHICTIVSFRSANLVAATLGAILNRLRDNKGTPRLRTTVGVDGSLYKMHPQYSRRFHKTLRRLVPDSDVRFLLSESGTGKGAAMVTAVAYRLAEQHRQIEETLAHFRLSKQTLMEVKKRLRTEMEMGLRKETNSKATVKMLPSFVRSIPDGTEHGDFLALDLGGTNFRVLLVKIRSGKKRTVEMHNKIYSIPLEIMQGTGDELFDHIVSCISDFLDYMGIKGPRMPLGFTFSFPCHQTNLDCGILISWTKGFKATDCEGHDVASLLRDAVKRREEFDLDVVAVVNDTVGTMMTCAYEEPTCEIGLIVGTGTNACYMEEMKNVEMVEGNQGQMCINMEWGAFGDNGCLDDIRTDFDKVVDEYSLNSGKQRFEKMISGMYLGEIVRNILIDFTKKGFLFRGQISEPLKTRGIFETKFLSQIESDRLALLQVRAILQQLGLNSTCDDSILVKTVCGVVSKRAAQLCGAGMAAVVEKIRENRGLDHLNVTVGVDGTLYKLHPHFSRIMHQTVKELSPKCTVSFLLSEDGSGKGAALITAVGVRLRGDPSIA
T1 sequence (P10860 54-558): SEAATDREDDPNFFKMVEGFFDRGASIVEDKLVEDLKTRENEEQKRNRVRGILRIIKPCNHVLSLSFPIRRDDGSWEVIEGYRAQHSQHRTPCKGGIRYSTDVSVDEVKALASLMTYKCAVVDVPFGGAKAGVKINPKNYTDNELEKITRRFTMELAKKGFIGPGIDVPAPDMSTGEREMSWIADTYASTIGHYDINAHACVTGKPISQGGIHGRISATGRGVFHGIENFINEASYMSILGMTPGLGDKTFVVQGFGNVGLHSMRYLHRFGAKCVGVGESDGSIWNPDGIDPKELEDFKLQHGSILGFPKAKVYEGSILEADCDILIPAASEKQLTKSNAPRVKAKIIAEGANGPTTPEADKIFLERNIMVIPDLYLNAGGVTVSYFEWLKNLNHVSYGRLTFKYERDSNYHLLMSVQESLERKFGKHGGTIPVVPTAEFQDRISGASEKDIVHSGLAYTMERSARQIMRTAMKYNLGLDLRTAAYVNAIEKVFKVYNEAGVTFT
T6 sequence (F1N206 36-509, one chain of several): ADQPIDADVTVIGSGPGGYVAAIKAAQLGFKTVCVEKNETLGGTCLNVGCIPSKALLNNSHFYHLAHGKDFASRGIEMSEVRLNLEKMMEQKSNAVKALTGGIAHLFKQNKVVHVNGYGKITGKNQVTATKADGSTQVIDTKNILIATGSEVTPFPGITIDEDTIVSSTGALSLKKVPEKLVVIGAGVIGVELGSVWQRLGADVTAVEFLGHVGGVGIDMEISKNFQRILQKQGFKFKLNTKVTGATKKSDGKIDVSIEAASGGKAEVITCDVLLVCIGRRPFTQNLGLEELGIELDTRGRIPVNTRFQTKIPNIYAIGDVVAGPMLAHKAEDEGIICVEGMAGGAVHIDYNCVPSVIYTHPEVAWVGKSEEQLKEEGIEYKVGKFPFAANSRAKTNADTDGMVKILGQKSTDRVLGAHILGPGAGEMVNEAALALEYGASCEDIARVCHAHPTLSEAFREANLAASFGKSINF
T7 sequence (P26284 30-390): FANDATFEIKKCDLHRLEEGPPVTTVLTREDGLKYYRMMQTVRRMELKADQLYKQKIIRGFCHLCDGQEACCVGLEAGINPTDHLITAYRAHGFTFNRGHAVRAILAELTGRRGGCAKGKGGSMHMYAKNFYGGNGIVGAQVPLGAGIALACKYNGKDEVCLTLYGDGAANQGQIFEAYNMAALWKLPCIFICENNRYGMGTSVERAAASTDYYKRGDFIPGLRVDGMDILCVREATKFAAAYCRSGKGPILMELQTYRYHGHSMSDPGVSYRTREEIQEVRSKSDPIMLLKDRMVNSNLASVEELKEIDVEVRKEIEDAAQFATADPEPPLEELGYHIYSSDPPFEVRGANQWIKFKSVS
T7 sequence (P49432 31-359): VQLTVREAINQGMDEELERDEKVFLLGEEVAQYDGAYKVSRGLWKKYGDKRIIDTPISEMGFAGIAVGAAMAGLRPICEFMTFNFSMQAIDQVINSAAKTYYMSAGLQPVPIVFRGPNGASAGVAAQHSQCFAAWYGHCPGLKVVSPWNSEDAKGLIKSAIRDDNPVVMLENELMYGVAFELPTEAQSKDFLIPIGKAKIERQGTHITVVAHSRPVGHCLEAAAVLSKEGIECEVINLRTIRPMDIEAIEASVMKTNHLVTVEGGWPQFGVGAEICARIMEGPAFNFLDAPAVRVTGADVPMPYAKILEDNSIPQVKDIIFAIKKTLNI
T7 sequence (Q6P6R2 36-509): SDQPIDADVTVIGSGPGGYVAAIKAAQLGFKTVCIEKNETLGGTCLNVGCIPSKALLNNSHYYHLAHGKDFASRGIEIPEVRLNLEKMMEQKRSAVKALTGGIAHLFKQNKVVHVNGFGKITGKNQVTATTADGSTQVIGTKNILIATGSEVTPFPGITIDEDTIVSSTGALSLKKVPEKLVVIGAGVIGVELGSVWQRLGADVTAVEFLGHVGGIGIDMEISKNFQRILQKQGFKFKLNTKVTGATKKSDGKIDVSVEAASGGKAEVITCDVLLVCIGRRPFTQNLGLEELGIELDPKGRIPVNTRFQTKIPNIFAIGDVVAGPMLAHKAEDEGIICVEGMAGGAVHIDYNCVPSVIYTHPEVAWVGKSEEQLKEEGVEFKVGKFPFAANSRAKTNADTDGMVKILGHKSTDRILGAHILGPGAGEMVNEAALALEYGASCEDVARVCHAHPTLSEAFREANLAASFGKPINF
T4 sequence (P00346 25-338): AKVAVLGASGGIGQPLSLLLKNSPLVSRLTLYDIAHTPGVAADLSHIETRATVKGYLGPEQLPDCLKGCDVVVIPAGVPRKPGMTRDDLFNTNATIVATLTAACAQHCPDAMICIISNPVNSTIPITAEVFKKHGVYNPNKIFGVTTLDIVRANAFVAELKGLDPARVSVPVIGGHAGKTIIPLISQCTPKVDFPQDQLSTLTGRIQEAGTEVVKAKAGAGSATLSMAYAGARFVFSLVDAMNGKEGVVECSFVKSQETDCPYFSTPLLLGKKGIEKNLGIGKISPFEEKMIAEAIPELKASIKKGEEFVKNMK
T5 sequence (P04797 whole entry): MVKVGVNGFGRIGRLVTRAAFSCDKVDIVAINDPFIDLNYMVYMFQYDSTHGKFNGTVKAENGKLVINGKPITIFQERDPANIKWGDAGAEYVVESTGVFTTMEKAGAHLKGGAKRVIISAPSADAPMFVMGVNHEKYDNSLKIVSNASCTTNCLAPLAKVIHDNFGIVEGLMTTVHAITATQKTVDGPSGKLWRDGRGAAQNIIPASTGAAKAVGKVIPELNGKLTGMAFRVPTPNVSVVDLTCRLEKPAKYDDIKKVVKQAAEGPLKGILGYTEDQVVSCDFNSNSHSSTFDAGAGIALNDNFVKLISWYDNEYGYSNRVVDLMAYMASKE

One may read the inhibition as how much of the control response was suppressed. Low values mean a response near the control, high ones a response far below the control. In the case of `Nc1ncnc2c1ncn2[C@@H]1O[C@H](COP(=O)(O)OP(=O)(O)OC[C@H]2O[C@@H](N3C=CC(CC(=O)C(=O)O)C(C=O)=C3)[C@H](O)[C@@H]2O)[C@@H](O)[C@H]1O` (some centres unmarked) [RAP, 3(-4-(reduced 3-pyridinealdehyde-adeninedinucleotide))-pyruvate], in the series on rats, the “side effects as judged by gross inspection of behavior” value is on record as “no noticeable untoward effects; also recorded: no side effects were noted” and the “survival before being killed” value is listed as 3 weeks. Besides, the “growth and feeding after injection” value in the series with rats (3 weeks) is “grew and fed normally”. For the same compound, the gross post-mortem examination entry in the series with rats (after 3 weeks) is on record as “no obvious tissue damage”. Besides, on glutamate dehydrogenase, the “effect on rat brain glutamate dehydrogenase” value is “little or no effect” and the inhibition at 20 µM was at most 20%. Further, in series [1], the “effect on rat brain mitochondrial malate dehydrogenase” value is “little or no effect” and the inhibition at 20 µM was at most 20%. The “effect on rat brain hexokinase” value on hexokinase is “similarly unaffected; also recorded: did not inhibit”. The compound also gave an inhibition at 20 µM in series [2] of at most 20%. Besides, the “effect on rat brain glyceraldehyde-3-phosphate dehydrogenase” value in series [3] is on record as “little or no effect”. Moreover, in [4], the half-life is 1.5 h. In series [5], the “effect on purified bovine heart α-ketoglutarate dehydrogenase complex” value is “nor did 20 μM RAP inhibit”. Moreover, the “effect on rat brain pyruvate dehydrogenase” value on pyruvate dehydrogenase is recorded as “little or no effect”.
